The values that follow are results of earlier work, collected in paper PMC8426237, “A first-in-human phase I study of TAS0728, an oral covalent binding inhibitor of HER2, in patients with advanced solid tumors with HER2 or HER3 aberrations” (Investigational New Drugs, 2021).

Where two headings read alike, the source gives them in different places.

The conditions of the series: cited from earlier work; for Diarrhea toxicity grade: HER2-positive breast cancer; for Diarrhea in patients: approved oral HER2-inhibitory compounds.

Regarding `CN(C)C/C=C/C(=O)Nc1cc2c(Nc3ccc(F)c(Cl)c3)ncnc2cc1O[C@H]1CCOC1` [afatinib], the Diarrhea in patients entry was “associated with severe diarrhea”. Further, for the setting “LUX-BREAST-1/−3 studies”, the Diarrhea toxicity grade result was “Grade 3 or 4”.
Take `CS(=O)(=O)CCNCc1ccc(-c2ccc3ncnc(Nc4ccc(OCc5cccc(F)c5)c(Cl)c4)c3c2)o1` [lapatinib]: the Diarrhea in patients result was “associated with severe diarrhea”.
Take `CCOc1cc2ncc(C#N)c(Nc3ccc(OCc4ccccn4)c(Cl)c3)c2cc1NC(=O)/C=C/CN(C)C` [neratinib]: the Diarrhea in patients result was “associated with severe diarrhea” and the “Response of patients with tumors harboring HER2 G778_P780dup” value was “respond to treatment”. The Diarrhea toxicity grade entry (ExteNET trial) was “Grade 3 or 4”.
Take `Cc1cc(Nc2ncnc3ccc(NC4=NC(C)(C)CO4)cc23)ccc1Oc1ccn2ncnc2c1` [tucatinib]: the Diarrhea in patients entry is reported as “associated with severe diarrhea”.
